Experimental data: patent US10294202B2, “Pyrrolidinones as herbicides” (FMC Corporation, priority 2013, dated 2019)

Columns and labels:
[1] = test system: oat, wild; assay: Test C pre-/postemergence herbicide test; assay type: in vivo, Avena fatua; conditions: Postemergence
Procedure, shortened: (§1)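 Response scores range from 0, meaning no effect, to 100, meaning complete control, assigned visually by comparison with controls roughly two weeks (13 to 15 days) after spraying. Applications were made preemergence to seeded loam–sand soil and postemergence to 1- to 4-leaf plants.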

[2] = test system: blackgrass; assay: Test C pre-/postemergence herbicide test; assay type: in vivo, Alopecurus myosuroides
Procedure, shortened: as §1

[3] = test system: oilseed rape; assay: Test C pre-/postemergence herbicide test; assay type: in vivo, Brassica napus
Procedure, shortened: as §1

[4] = test system: velvetleaf; assay: Test C pre-/postemergence herbicide test; assay type: in vivo, Abutilon theophrasti
Procedure, shortened: as §1

[5] = test system: barnyardgrass; assay: Test A pre-/postemergence herbicide test; assay type: in vivo, Echinochloa crus-galli; conditions: for Plant response rating, Barnyardgrass: 0 to 100 scale
Procedure, shortened: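 Scoring was visual, relative to untreated controls, on a 0–100 scale after about 10 greenhouse days. Preemergence treatment used a directed soil spray over seeded loam/sand; postemergence treatment targeted one- to two-leaf plants of 2–10 cm.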

[6] = test system: crabgrass, large; assay: Test C pre-/postemergence herbicide test; assay type: in vivo, Digitaria sanguinalis
Procedure, shortened: as §1

[7] = test system: barnyardgrass; assay: Test C pre-/postemergence herbicide test; assay type: in vivo, Echinochloa crus-galli
Procedure, shortened: as §1

[8] = test system: galium; assay: Test C pre-/postemergence herbicide test; assay type: in vivo, Galium aparine
Procedure, shortened: as §1

[9] = test system: pigweed; assay: Test C pre-/postemergence herbicide test; assay type: in vivo, Amaranthus retroflexus
Procedure, shortened: as §1

[10] = test system: foxtail, giant; assay: Test C pre-/postemergence herbicide test; assay type: in vivo, Setaria faberii
Procedure, shortened: as §1

[11] = test system: wheat (winter wheat); assay: Test C pre-/postemergence herbicide test; assay type: in vivo, Triticum aestivum
Procedure, shortened: as §1

[12] = test system: soybean; assay: Test C pre-/postemergence herbicide test; assay type: in vivo, Glycine max
Procedure, shortened: as §1

[13] = Postemergence, 31 g ai/ha, scale 0 to 100 (0 no effect, 100 complete control)
[14] = Postemergence, 62 g ai/ha, scale 0 (no effect) to 100 (complete control)
[15] = Postemergence, 125 g ai/ha, scale 0 to 100 (0 no effect, 100 complete control)
[16] = Postemergence, 250 g ai/ha, scale 0 to 100 (0 no effect, 100 complete control)
[17] = Preemergence, 31 g ai/ha, scale 0 to 100, 0 is no effect and 100 is complete control
[18] = Preemergence, 62 g ai/ha, scale 0 to 100
[19] = Preemergence, 125 g ai/ha, scale 0 to 100 (0 no effect, 100 complete control)
[20] = Preemergence, 62 g ai/ha, scale 0 to 100 (0 no effect, 100 complete control)

O=C1NCC(c2cccc(OC(F)F)c2)C1C(=O)Nc1cccc(F)c1F (stereo not shown) [Compound 224]
Plant response rating, Oat, Wild ([1]; 31 g ai/ha, scale 0 to 100 (0 no effect, 100 complete control)): 0 | Plant response rating, Oat, Wild ([1]; 62 g ai/ha, scale 0 (no effect) to 100 (complete control)): 0 | Plant response rating, Oat, Wild ([1]; 125 g ai/ha, scale 0 to 100 (0 no effect, 100 complete control)): 5 | Plant response rating, Oat, Wild ([1]; 250 g ai/ha, scale 0 to 100 (0 no effect, 100 complete control)): 15 | Plant response rating, Blackgrass [2, 13]: 0 | Plant response rating, Blackgrass [2, 14]: 0 | Plant response rating, Blackgrass [2, 15]: 0 | Plant response rating, Blackgrass [2, 16]: 0 | Blackgrass plant response rating [2, 17]: 0 | Plant response rating, Blackgrass [2, 18]: 65 | Plant response rating, Blackgrass [2, 19]: 70 | Plant response rating (scale of 0 to 100), Blackgrass ([2]; Preemergence, 250 g ai/ha): 85 | Plant response rating, Oilseed Rape [3, 13]: 0 | Plant response rating, Oilseed Rape [3, 14]: 15 | Plant response rating, Oilseed Rape [3, 15]: 20 | Plant response rating, Oilseed Rape [3, 16]: 5 | Oilseed Rape plant response rating [3, 17]: 0 | Oilseed Rape plant response rating [3, 20]: 5 | Plant response rating, Oilseed Rape [3, 19]: 70 | Plant response rating (scale of 0 to 100), Oilseed Rape ([3]; Preemergence, 250 g ai/ha): 85 | Plant response rating, Velvetleaf [4, 13]: 0 | Plant response rating, Velvetleaf [4, 14]: 0 | Plant response rating, Velvetleaf [4, 15]: 25 | Plant response rating, Velvetleaf [4, 16]: 35 | Velvetleaf plant response rating [4, 17]: 0 | Velvetleaf plant response rating [4, 20]: 5 | Plant response rating, Velvetleaf [4, 19]: 45 | Plant response rating (scale of 0 to 100), Velvetleaf ([4]; Preemergence, 250 g ai/ha): 40 | Plant response rating, Barnyardgrass ([5]; 125 g ai/ha, visual rating, 0 no effect, 100 complete control, approximately 10 days, preemergence): 90 | Plant response rating, Barnyardgrass ([5]; Postemergence, 125 g ai/ha, 0 is no effect, 100 is complete control): 80 | Barnyardgrass plant response rating (0 to 100 scale, 0 is no effect, 100 is complete control) ([5]; Postemergence, 500 g ai/ha): 90 | Plant response rating, Barnyardgrass ([5]; preemergence, 500 g ai/ha, 0 is no effect and 100 is complete control): 90 | Plant response rating, Crabgrass, Large [6, 13]: 0 | Plant response rating, Crabgrass, Large [6, 14]: 35 | Plant response rating, Crabgrass, Large [6, 15]: 55 | Plant response rating, Crabgrass, Large [6, 16]: 75 | Crabgrass, Large plant response rating [6, 17]: 90 | Crabgrass, Large plant response rating [6, 20]: 90 | Plant response rating, Crabgrass, Large [6, 19]: 90 | Plant response rating (scale of 0 to 100), Crabgrass, Large ([6]; Preemergence, 250 g ai/ha): 100 | Plant response rating, Barnyardgrass [7, 13]: 0 | Plant response rating, Barnyardgrass [7, 14]: 30 | Plant response rating, Barnyardgrass [7, 15]: 50 | Plant response rating, Barnyardgrass [7, 16]: 75 | Barnyardgrass plant response rating [7, 17]: 75 | Plant response rating, Barnyardgrass [7, 18]: 85 | Plant response rating, Barnyardgrass [7, 19]: 90 | Plant response rating (scale of 0 to 100; 0 is no effect, 100 is complete control), Barnyardgrass ([7]; Preemergence, 250 g ai/ha): 95 | Plant response rating, Galium [8, 13]: 5 | Plant response rating, Galium [8, 14]: 45 | Plant response rating, Galium [8, 15]: 60 | Plant response rating, Galium [8, 16]: 85 | Galium plant response rating [8, 17]: 0 | Galium plant response rating [8, 20]: 40 | Plant response rating, Galium [8, 19]: 85 | Plant response rating (scale of 0 to 100), Galium ([8]; Preemergence, 250 g ai/ha): 85 | Plant response rating, Pigweed [9, 13]: 40 | Plant response rating, Pigweed [9, 14]: 55 | Plant response rating, Pigweed [9, 15]: 60 | Plant response rating, Pigweed [9, 16]: 65 | Pigweed plant response rating [9, 17]: 0 | Pigweed plant response rating [9, 20]: 25 | Plant response rating, Pigweed [9, 19]: 60 | Plant response rating (scale of 0 to 100), Pigweed ([9]; Preemergence, 250 g ai/ha): 85 | Plant response rating, Foxtail, Giant [10, 13]: 0 | Plant response rating, Foxtail, Giant [10, 14]: 0 | Plant response rating, Foxtail, Giant [10, 15]: 60 | Plant response rating, Foxtail, Giant [10, 16]: 35 | Foxtail, Giant plant response rating [10, 17]: 80 | Foxtail, Giant plant response rating [10, 20]: 90 | Plant response rating, Foxtail, Giant [10, 19]: 95 | Plant response rating (scale of 0 to 100), Foxtail, Giant ([10]; Preemergence, 250 g ai/ha): 98 | Plant response rating, Wheat [11, 13]: 0 | Plant response rating, Wheat [11, 14]: 0 | Plant response rating, Wheat [11, 15]: 5 | Plant response rating, Wheat [11, 16]: 5 | Wheat plant response rating [11, 17]: 0 | Wheat plant response rating [11, 20]: 0 | Plant response rating, Wheat [11, 19]: 0 | Plant response rating (scale of 0 to 100), Wheat ([11]; Preemergence, 250 g ai/ha): 45 | Plant response rating, Soybean [12, 13]: 0 | Plant response rating, Soybean [12, 14]: 10 | Plant response rating, Soybean [12, 15]: 5 | Plant response rating, Soybean [12, 16]: 5 | Soybean plant response rating [12, 17]: 0 | Soybean plant response rating [12, 20]: 100 | Plant response rating, Soybean [12, 19]: 0 | Plant response rating (scale of 0 to 100), Soybean ([12]; Preemergence, 250 g ai/ha): 5
